Experimental data as given in US10745414B2, “Crystal salt form of 2,2-dimethyl-6-((4-((3,4,5-trimethoxyphenyl)amino)-1,3,5-triazine-2-yl)amino)-2H-pyrido[3,2-b][1,4]oxazine-3(4H)-one for human use” (LIMITED “MOLECULAR TECHNOLOGIES”, priority 2016, dated 2020).

Assays:
[1] = pharmacokinetics in rabbits at single administration; type: in vivo; details: 50 mg/kg
[2] = pharmacokinetics in blood plasma after oral administration in Wistar rats; details: rat, in vivo, 21 mg/kg
[3] = tested on: mature human osteoclasts; assay: osteoclast-mediated resorption of mineralized matrix; type: cell-based; details: 1.1 μM and 10 μM, 48 hours
Procedure: The study was carried out following the method below: CD15+ monocytes (osteoclast precursor cells) were cultivated for 3 days in a proliferation medium (Igla α-modified minimum essential medium/fetal calf serum (aMEM/FCS), 10% with 25 ng/ml of macrophage colony-stimulating factor (M-CSF)). During this stage M-CSF promoted proliferation and expression of a receptor activator of nuclear factor KB (RANK, cappa-B, type I membrane protein). The proliferation medium was removed and cells were differentiated in a differentiation medium (aMEM/FCS-10% with 100 ng/ml of RANKL and 25 ng/ml of M-CSF). When mature osteoclasts were detected in the culture (day 4 of the study), the cells were collected and re-inoculated into a 96-well plate coated with a synthetic mineralized matrix. Cultivation continued for 48 hours (at presence of the studied compounds) to evaluate osteoclast resorption. Then number of mature osteoclasts and the resorption degree were evaluated. An effect of 4-methylbenzenesulfonic acid and Compound 1 salt concentration on concentration and resorption degree of mature osteoclasts was evaluated in comparison with control samples ([…] control, 0.3% DMSO solvent) and reference inhibitors, i.e., saracatinib and bosutinib (see FIG. 18).

[4] = pharmacokinetics in blood plasma after oral administration in Wistar rats; details: rat, in vivo
Procedure: At the first stage, pharmacokinetics of the Compound 1 free base was studied after oral administration in Wistar rats at dosage of 30 mg/kg.
Pharmacokinetics of several Compound 1 salt forms was studied after oral administration in Wistar rats at a dose of 37 mg/kg (30 mg/kg equivalent to a free base).

[5] = distribution across organs and tissues in rats; type: in vivo
Procedure: When the 4-methylbenzenesulfonic acid and Compound 1 salt hydrate is administered intragastrically at dosages 30 to 200 mg/kg, the Compound 1 concentration in rat blood plasma increases in proportion to the dose. High concentrations of the Compound 1 was found almost in all the tissues studied and reached maximum at 2 to 4 hours after 4-methylbenzenesulfonic acid and Compound 1 salt hydrate administration.

[6] = tested on: Sprague-Dawley rat models of osteoarthritis induced by intra-articular introduction of sodium iodoacetate; assay: mechanical allodynia test with von Frey filaments in osteoarthritis induced by sodium iodoacetate; type: in vivo
Procedure: The intra-articular introduction of aerobic glycolysis inhibitor (sodium iodoacetate) results in death of chondrocytes and acute inflammatory reaction in a synovial cavity. In absence of treatment, at day 10 from the pathology induction an onset of chronic pain is observed due to cartilage destruction and development of chronic inflammation in particular cases [J Musculoskel Neuron Interact 2001; 1(4):363-376]. Extent of osteoarthritis development in rats was evaluated by comparison of extremity pain sensitivity threshold after the introduction of sodium iodoacetate versus background measurements taken before the pathology induction. The threshold of the pain sensitivity was evaluated by mechanical allodynia test using von Frey filaments (see Table 8).
For the purposes of the study, rat males weighing 150 to 200 g were selected. All the animals underwent acclimatization for 14 days. The animals were housed in a polycarbonate cages of 3H type manufactured by Charles River laboratories Inc according to COST R 53434-2009. 12-hours lighting regimen was maintained. The animals had access to food and water ad libitum. The pathology was induced by introduction of 50 μl solution containing 2 mg of sodium iodoacetate into a synovial cavity of the animal knee joints. Tactile allodynia induced by a mechanical irritation was evaluated using von Frey filaments weighing 0.06 to 23.96 g. The test was repeated five times for each filament at intervals of 1 to 2 s. The sensitivity threshold was considered as a minimum reaction threshold provoking paw withdrawal in one of five repeats.

SMILES: COc1cc(Nc2ncnc(Nc3ccc4c(n3)NC(=O)C(C)(C)O4)n2)cc(OC)c1OC.Cc1ccc(S(=O)(=O)O)cc1.O [monohydrate of 4-methylbenzenesulfonic acid and 2,2-dimethyl-6-((4-((3,4,5-trimethoxyphenyl)amino)-1,3,5-triazine-2-yl)amino)-2H-pyrido[3,2-b][1,4]oxazine-3(4H)-one base]
- elimination half-time [1]: more than 7 hours
- Cmax [2]: 416 ng/mL
- effect on osteoclast-mediated resorption of the mineralized matrix [3]: profound statistically significant inhibitory effect
- time of reaching maximum concentration in blood [4]: 1.1 to 1.3 h
- tissue with lowest concentration [5]: lowest concentration of the Compound 1 was registered in muscles
- daily average concentration in bone and cartilage tissues versus daily average concentration in blood plasma ([5]; intragastric): more than three times
- Reaction threshold value, % of control ([6]; 100 mg/kg intragastric, days 0-28 (daily), day 14 from pathology induction): 106 % of control
- Reaction threshold value, % of control ([6]; 100 mg/kg intragastric, days 0-28 (daily), day 21): 80 % of control
- Reaction threshold value, % of control ([6]; 100 mg/kg intragastric, days 0-28 (daily), day 28): 106 % of control
- Reaction threshold value, % of control ([6]; 100 mg/kg intragastric, days 7-28 (daily), day 14): 70 % of control
- Reaction threshold value, % of control ([6]; 100 mg/kg intragastric, days 7-28 (daily), day 21): 75 % of control
- Reaction threshold value, % of control ([6]; 100 mg/kg intragastric, days 7-28 (daily), day 28): 73 % of control
- Reaction threshold value, % of control ([6]; 500 mg/kg intragastric, days 0-28 (daily), day 14): 114 % of control
- Reaction threshold value, % of control ([6]; 500 mg/kg intragastric, days 0-28 (daily), day 21): 106 % of control
- Reaction threshold value, % of control ([6]; 500 mg/kg intragastric, days 0-28 (daily), day 28): 107 % of control
- Reaction threshold value, % of control ([6]; 500 mg/kg intragastric, days 7-28 (daily), day 14): 76 % of control
- Reaction threshold value, % of control ([6]; 500 mg/kg intragastric, days 7-28 (daily), day 21): 91 % of control
- Reaction threshold value, % of control ([6]; 500 mg/kg intragastric, days 7-28 (daily), day 28): 118 % of control
- mechanical allodynia onset ([6]; 100 and 500 mg/kg from day of pathology induction, 500 mg/kg from the seventh day): Total arrest of mechanical allodynia onset
